Measured values: ChEMBL document CHEMBL3425423, “Hydroxy tricyclic 1,5-naphthyridinone oxabicyclooctane-linked novel bacterial topoisomerase inhibitors as broad-spectrum antibacterial agents-SAR of RHS moiety (Part-3)” (Bioorg Med Chem Lett, 2015)
pIC50: −log10 of the molar value. Values after ≈ are worked out from the molar mass of the structure shown.

Columns and labels:
[1] = biological target: T1, Voltage-gated inwardly rectifying potassium channel KCNH2 (Homo sapiens, UniProt Q12809); experiment: Displacement of MK499 from human ERG
T1 sequence (Q12809 whole entry): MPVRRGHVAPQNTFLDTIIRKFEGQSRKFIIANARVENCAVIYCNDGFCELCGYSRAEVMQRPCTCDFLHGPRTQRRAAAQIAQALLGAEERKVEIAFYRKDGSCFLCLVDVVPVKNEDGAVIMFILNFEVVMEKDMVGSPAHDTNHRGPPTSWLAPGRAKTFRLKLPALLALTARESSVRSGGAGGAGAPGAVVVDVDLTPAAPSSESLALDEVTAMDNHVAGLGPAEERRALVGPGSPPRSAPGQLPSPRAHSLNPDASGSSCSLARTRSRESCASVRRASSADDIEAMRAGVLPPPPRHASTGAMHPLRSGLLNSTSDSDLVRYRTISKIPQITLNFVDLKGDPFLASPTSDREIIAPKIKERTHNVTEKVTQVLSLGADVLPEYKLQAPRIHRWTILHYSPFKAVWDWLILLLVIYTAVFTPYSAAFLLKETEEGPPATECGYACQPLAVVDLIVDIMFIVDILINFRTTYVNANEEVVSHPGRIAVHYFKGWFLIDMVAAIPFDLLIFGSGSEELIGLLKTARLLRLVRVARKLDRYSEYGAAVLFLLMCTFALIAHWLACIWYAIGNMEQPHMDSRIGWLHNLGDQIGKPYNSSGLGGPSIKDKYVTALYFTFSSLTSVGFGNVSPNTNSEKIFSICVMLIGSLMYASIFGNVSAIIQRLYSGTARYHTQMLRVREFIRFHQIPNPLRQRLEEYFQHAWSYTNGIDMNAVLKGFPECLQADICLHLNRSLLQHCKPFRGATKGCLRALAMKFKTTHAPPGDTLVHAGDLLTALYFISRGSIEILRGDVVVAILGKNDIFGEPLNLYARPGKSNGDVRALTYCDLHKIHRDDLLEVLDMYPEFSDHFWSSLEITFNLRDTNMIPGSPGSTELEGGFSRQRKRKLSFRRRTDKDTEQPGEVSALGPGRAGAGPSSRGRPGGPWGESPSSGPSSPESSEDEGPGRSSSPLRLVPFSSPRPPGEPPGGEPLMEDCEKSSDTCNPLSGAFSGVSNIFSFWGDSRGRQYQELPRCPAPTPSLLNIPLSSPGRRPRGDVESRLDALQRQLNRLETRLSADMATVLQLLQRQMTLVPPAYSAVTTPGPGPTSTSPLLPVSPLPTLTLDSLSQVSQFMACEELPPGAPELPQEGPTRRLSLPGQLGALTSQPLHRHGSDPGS

Moraxella catarrhalis = experiment: Antibacterial activity against Moraxella catarrhalis ATCC 25238; type: functional
Staphylococcus aureus [2] = experiment: Antibacterial activity against Staphylococcus aureus Smith; type: functional
[3] = biological target: T1, Voltage-gated inwardly rectifying potassium channel KCNH2; experiment: Inhibition of human ERG expressed in CHO cells measured over 5 mins by patch clamp assay
Streptococcus pneumoniae = experiment: Antibacterial activity against Streptococcus pneumoniae IID554; type: functional
Escherichia coli = experiment: Antibacterial activity against Escherichia coli ATCC 25922; type: functional
Acinetobacter baumannii = experiment: Antibacterial activity against Acinetobacter baumannii IID876; type: functional
Enterococcus faecalis = experiment: Antibacterial activity against Enterococcus faecalis ATCC 29212; type: functional
Pseudomonas aeruginosa = experiment: Antibacterial activity against Pseudomonas aeruginosa PAO1; type: functional
Haemophilus influenzae = experiment: Antibacterial activity against Haemophilus influenzae ATCC 49247; type: functional
Enterococcus faecium = experiment: Antibacterial activity against VanA-type vancomycin-resistant Enterococcus faecium A2373; type: functional
Staphylococcus aureus [4] = experiment: Ratio of MIC for quinolone-resistant Staphylococcus aureus MS5935 to MIC for quinolone-sensitive Staphylococcus aureus; type: functional
[5] = Staphylococcus aureus, Smith, read-out: MIC
[6] = Streptococcus pneumoniae, IID554, read-out: MIC
[7] = Moraxella catarrhalis, ATCC 25238, read-out: MIC
[8] = Escherichia coli, ATCC 25922, read-out: MIC
[9] = Acinetobacter baumannii, IID876, read-out: MIC
[10] = Enterococcus faecalis, ATCC 29212, read-out: MIC
[11] = Pseudomonas aeruginosa, PAO1, read-out: MIC
[12] = Haemophilus influenzae, ATCC 49247, read-out: MIC
[13] = Enterococcus faecium, A2373, read-out: MIC

Compound	MIC (Staphylococcus aureus [2]; [5]) [µg/mL]	MIC (Streptococcus pneumoniae; [6]) [µg/mL]	MIC (Moraxella catarrhalis; [7]) [µg/mL]	MIC (Escherichia coli; [8]) [µg/mL]	MIC (Acinetobacter baumannii; [9]) [µg/mL]	MIC (Enterococcus faecalis; [10]) [µg/mL]	MIC (Pseudomonas aeruginosa; [11]) [µg/mL]	MIC (Haemophilus influenzae; [12]) [µg/mL]	MIC (Enterococcus faecium; [13]) [µg/mL]	Ratio (Staphylococcus aureus [4])	also measured
CC1COc2cc(CNC34CCC(C[C@]5(O)Cn6c(=O)ccc7ncc(F)c5c76)(CC3)OC4)ncc2O1 (stereo in doubt; 20)	1 (≈ 1.97 µM)	2 (≈ 3.93 µM)									pIC50 [1]: < 4.22; MIC (Moraxella catarrhalis): 2 µg/mL (≈ 3.93 µM); pIC50 [3]: < 4.22; MIC (Escherichia coli): 32 µg/mL (≈ 62.9 µM); MIC (Acinetobacter baumannii): 16 µg/mL (≈ 31.5 µM); MIC (Enterococcus faecalis): 8 µg/mL (≈ 15.7 µM); MIC (Pseudomonas aeruginosa): 32 µg/mL (≈ 62.9 µM); MIC (Haemophilus influenzae): 16 µg/mL (≈ 31.5 µM); MIC (Enterococcus faecium): 32 µg/mL (≈ 62.9 µM)
CN1CCN(C)c2nc(CNC34CCC(C[C@]5(O)Cn6c(=O)ccc7ncc(F)c5c76)(CC3)OC4)ccc21	8 (≈ 15.4 µM)	32 (≈ 61.5 µM)	32 (≈ 61.5 µM)	32 (≈ 61.5 µM)	32 (≈ 61.5 µM)	32 (≈ 61.5 µM)	32 (≈ 61.5 µM)	32 (≈ 61.5 µM)	32 (≈ 61.5 µM)		
N#Cc1c(CNC23CCC(C[C@]4(O)Cn5c(=O)ccc6ncc(F)c4c65)(CC2)OC3)ncc2c1OCCO2	8 (≈ 15.4 µM)	32 (≈ 61.6 µM)	32 (≈ 61.6 µM)	32 (≈ 61.6 µM)	32 (≈ 61.6 µM)	32 (≈ 61.6 µM)	32 (≈ 61.6 µM)	32 (≈ 61.6 µM)	32 (≈ 61.6 µM)		
O=c1ccc2ncc(F)c3c2n1C[C@@]3(O)CC12CCC(NCc3ccc4c(n3)NCCN4)(CC1)CO2	8 (≈ 16.2 µM)	16 (≈ 32.5 µM)	32 (≈ 65 µM)	32 (≈ 65 µM)	32 (≈ 65 µM)	32 (≈ 65 µM)	32 (≈ 65 µM)		32 (≈ 65 µM)	<4	pIC50 [1]: < 4.22; pIC50 [3]: < 4.22
CN1CCOc2ccc(CNC34CCC(C[C@]5(O)Cn6c(=O)ccc7ncc(F)c5c76)(CC3)OC4)nc21	4 (≈ 7.88 µM)	8 (≈ 15.8 µM)		32 (≈ 63 µM)	32 (≈ 63 µM)	32 (≈ 63 µM)	32 (≈ 63 µM)		32 (≈ 63 µM)	<4	pIC50 [1]: < 4.22; pIC50 [3]: < 4.22
O=C1COc2cnc(CNC34CCC(C[C@]5(O)Cn6c(=O)ccc7ncc(F)c5c76)(CC3)OC4)nc2N1	0.5 (≈ 0.983 µM)	2 (≈ 3.93 µM)		8 (≈ 15.7 µM)	32 (≈ 62.9 µM)	4 (≈ 7.87 µM)	16 (≈ 31.5 µM)		16 (≈ 31.5 µM)	<4	pIC50 [3]: 4.52
O=c1ccc2ncc(F)c3c2n1C[C@@]3(O)CC12CCC(NCc3cc4c(cn3)OCCS4)(CC1)CO2	0.25 (≈ 0.49 µM)	0.5 (≈ 0.979 µM)	1 (≈ 1.96 µM)	32 (≈ 62.7 µM)	4 (≈ 7.83 µM)	2 (≈ 3.92 µM)	32 (≈ 62.7 µM)	8 (≈ 15.7 µM)	8 (≈ 15.7 µM)		
O=C1COc2cc(OC(=O)c3ccccc3)c(CNC34CCC(C[C@]5(O)Cn6c(=O)ccc7ncc(F)c5c76)(CC3)OC4)nc2N1	8 (≈ 12.7 µM)	32 (≈ 51 µM)	32 (≈ 51 µM)	32 (≈ 51 µM)	32 (≈ 51 µM)	32 (≈ 51 µM)	32 (≈ 51 µM)	32 (≈ 51 µM)	32 (≈ 51 µM)	<4	pIC50 [3]: 4.52
CC1COc2cnc(CNC34CCC(C[C@]5(O)Cn6c(=O)ccc7ncc(F)c5c76)(CC3)OC4)cc2O1 (stereo in doubt; 22)	4 (≈ 7.87 µM)	4 (≈ 7.87 µM)									MIC (Moraxella catarrhalis): 32 µg/mL (≈ 62.9 µM); MIC (Escherichia coli): 32 µg/mL (≈ 62.9 µM); MIC (Acinetobacter baumannii): 32 µg/mL (≈ 62.9 µM); MIC (Enterococcus faecalis): 32 µg/mL (≈ 62.9 µM); MIC (Pseudomonas aeruginosa): 32 µg/mL (≈ 62.9 µM); MIC (Haemophilus influenzae): 32 µg/mL (≈ 62.9 µM); MIC (Enterococcus faecium): 32 µg/mL (≈ 62.9 µM)
O=c1ccc2ncc(F)c3c2n1C[C@@]3(O)CC12CCC(NCc3cc4c(cn3)OCCC4)(CC1)CO2	0.13 (≈ 0.264 µM)	0.5 (≈ 1.02 µM)		16 (≈ 32.5 µM)	4 (≈ 8.12 µM)	4 (≈ 8.12 µM)	32 (≈ 65 µM)	4 (≈ 8.12 µM)	16 (≈ 32.5 µM)		
O=c1ccc2ncc(F)c3c2n1C[C@@]3(O)CC12CCC(NCc3cc4c(cn3)SCCO4)(CC1)CO2	0.12 (≈ 0.235 µM)	0.25 (≈ 0.49 µM)	0.5 (≈ 0.979 µM)	16 (≈ 31.3 µM)	2 (≈ 3.92 µM)	2 (≈ 3.92 µM)	32 (≈ 62.7 µM)	8 (≈ 15.7 µM)	4 (≈ 7.83 µM)		
O=c1ccc2ncc(F)c3c2n1C[C@@]3(O)CC12CCC(NCc3cc4c(cn3)OCS4)(CC1)CO2	0.25 (≈ 0.503 µM)	0.25 (≈ 0.503 µM)	0.5 (≈ 1.01 µM)	8 (≈ 16.1 µM)	0.5 (≈ 1.01 µM)	2 (≈ 4.03 µM)	32 (≈ 64.4 µM)	4 (≈ 8.06 µM)	8 (≈ 16.1 µM)		
O=c1ccc2ncc(F)c3c2n1C[C@@]3(O)CC12CCC(NCc3cc4c(c(Cl)c3Cl)OCCO4)(CC1)CO2	1 (≈ 1.78 µM)	4 (≈ 7.11 µM)	0.5 (≈ 0.889 µM)	32 (≈ 56.9 µM)	32 (≈ 56.9 µM)	8 (≈ 14.2 µM)	32 (≈ 56.9 µM)	32 (≈ 56.9 µM)	32 (≈ 56.9 µM)		
O=c1ccc2ncc(F)c3c2n1C[C@@]3(O)CC12CCC(NCc3ccc4c(n3)OCCN4)(CC1)CO2	8 (≈ 16.2 µM)	8 (≈ 16.2 µM)	32 (≈ 64.8 µM)	32 (≈ 64.8 µM)	32 (≈ 64.8 µM)	32 (≈ 64.8 µM)	32 (≈ 64.8 µM)	32 (≈ 64.8 µM)	32 (≈ 64.8 µM)	<4	
O=c1ccc2ncc(F)c3c2n1C[C@@]3(O)CC12CCC(NCc3ccc4c(c3Cl)OCCO4)(CC1)CO2	1 (≈ 1.89 µM)	1 (≈ 1.89 µM)	32 (≈ 60.6 µM)	32 (≈ 60.6 µM)	32 (≈ 60.6 µM)	8 (≈ 15.2 µM)	32 (≈ 60.6 µM)	32 (≈ 60.6 µM)	32 (≈ 60.6 µM)		
O=c1ccc2ncc(F)c3c2n1C[C@@]3(O)CC12CCC(NCc3c(Cl)cc4c(c3Cl)OCCO4)(CC1)CO2	4 (≈ 7.11 µM)	4 (≈ 7.11 µM)	32 (≈ 56.9 µM)	32 (≈ 56.9 µM)	32 (≈ 56.9 µM)	16 (≈ 28.4 µM)	32 (≈ 56.9 µM)	32 (≈ 56.9 µM)	32 (≈ 56.9 µM)		
O=C1COc2cc(O)c(CNC34CCC(C[C@]5(O)Cn6c(=O)ccc7ncc(F)c5c76)(CC3)OC4)nc2N1	2 (≈ 3.82 µM)	2 (≈ 3.82 µM)	1 (≈ 1.91 µM)	16 (≈ 30.6 µM)	32 (≈ 61.1 µM)	8 (≈ 15.3 µM)	16 (≈ 30.6 µM)	4 (≈ 7.64 µM)	16 (≈ 30.6 µM)	<4	
CC1COc2cnc(CNC34CCC(C[C@]5(O)Cn6c(=O)ccc7ncc(F)c5c76)(CC3)OC4)cc2O1 (stereo in doubt; 21)			32 (≈ 62.9 µM)	32 (≈ 62.9 µM)	32 (≈ 62.9 µM)	16 (≈ 31.5 µM)	32 (≈ 62.9 µM)	32 (≈ 62.9 µM)	32 (≈ 62.9 µM)		MIC (Staphylococcus aureus [2]): 4 µg/mL (≈ 7.87 µM); MIC (Streptococcus pneumoniae): 2 µg/mL (≈ 3.93 µM)
O=c1ccc2ncc(F)c3c2n1C[C@@]3(O)CC12CCC(NCc3cc4c(cc3Cl)OCCO4)(CC1)CO2	0.25 (≈ 0.474 µM)	0.5 (≈ 0.947 µM)	0.5 (≈ 0.947 µM)	32 (≈ 60.6 µM)	8 (≈ 15.2 µM)	4 (≈ 7.58 µM)	32 (≈ 60.6 µM)	32 (≈ 60.6 µM)	8 (≈ 15.2 µM)		
O=c1ccc2ncc(F)c3c2n1C[C@@]3(O)CC12CCC(NCc3ncc4c(n3)OCCO4)(CC1)CO2	8 (≈ 16.1 µM)	4 (≈ 8.07 µM)	32 (≈ 64.6 µM)	32 (≈ 64.6 µM)	32 (≈ 64.6 µM)	32 (≈ 64.6 µM)	32 (≈ 64.6 µM)	32 (≈ 64.6 µM)	32 (≈ 64.6 µM)		
Nc1cc2c(nc1CNC13CCC(C[C@]4(O)Cn5c(=O)ccc6ncc(F)c4c65)(CC1)OC3)NC(=O)CO2	8 (≈ 15.3 µM)	32 (≈ 61.2 µM)	4 (≈ 7.65 µM)	32 (≈ 61.2 µM)	32 (≈ 61.2 µM)	32 (≈ 61.2 µM)	32 (≈ 61.2 µM)	32 (≈ 61.2 µM)	32 (≈ 61.2 µM)	<4	
O=c1ccc2ncc(F)c3c2n1C[C@@]3(O)CC12CCC(NCc3cc4c(nn3)OCCO4)(CC1)CO2	4 (≈ 8.07 µM)	2 (≈ 4.04 µM)	32 (≈ 64.6 µM)	32 (≈ 64.6 µM)	32 (≈ 64.6 µM)	8 (≈ 16.1 µM)	32 (≈ 64.6 µM)	32 (≈ 64.6 µM)	32 (≈ 64.6 µM)		
O=C1COc2ccc(CNC34CCC(C[C@]5(O)Cn6c(=O)ccc7ncc(F)c5c76)(CC3)OC4)nc2N1	0.25 (≈ 0.493 µM)	0.25 (≈ 0.493 µM)	0.25 (≈ 0.493 µM)	4 (≈ 7.88 µM)	2 (≈ 3.94 µM)	4 (≈ 7.88 µM)	16 (≈ 31.5 µM)	1 (≈ 1.97 µM)	8 (≈ 15.8 µM)		
Cc1cc2c(nc1CNC13CCC(C[C@]4(O)Cn5c(=O)ccc6ncc(F)c4c65)(CC1)OC3)NC(=O)CO2	1.5 (≈ 2.88 µM)	4 (≈ 7.67 µM)	0.5 (≈ 0.959 µM)	8 (≈ 15.3 µM)	4 (≈ 7.67 µM)	8 (≈ 15.3 µM)	32 (≈ 61.4 µM)	4 (≈ 7.67 µM)	32 (≈ 61.4 µM)		
CC1COc2cc(CNC34CCC(C[C@]5(O)Cn6c(=O)ccc7ncc(F)c5c76)(CC3)OC4)ncc2O1 (stereo in doubt; 19)			4 (≈ 7.87 µM)	32 (≈ 62.9 µM)	16 (≈ 31.5 µM)	16 (≈ 31.5 µM)	32 (≈ 62.9 µM)	32 (≈ 62.9 µM)	32 (≈ 62.9 µM)	<4	MIC (Staphylococcus aureus [2]): 2 µg/mL (≈ 3.93 µM); MIC (Streptococcus pneumoniae): 4 µg/mL (≈ 7.87 µM)
O=c1ccc2ncc(F)c3c2n1C[C@@]3(O)CC12CCC(NCOc3cc(F)ccc3F)(CC1)CO2	1 (≈ 2.05 µM)	2 (≈ 4.1 µM)		32 (≈ 65.6 µM)	4 (≈ 8.21 µM)	16 (≈ 32.8 µM)	64 (≈ 131 µM)		32 (≈ 65.6 µM)	<4	
O=c1ccc2ncc(F)c3c2n1C[C@@]3(O)CC12CCC(NCc3cc(-c4cccs4)on3)(CC1)CO2	0.25 (≈ 0.492 µM)	0.5 (≈ 0.983 µM)		16 (≈ 31.5 µM)	16 (≈ 31.5 µM)	2 (≈ 3.93 µM)	16 (≈ 31.5 µM)		16 (≈ 31.5 µM)	<4	
